Measured values published in ChEMBL document CHEMBL5465560, “Selectivity Literature for EUbOPEN Chemogenomic Library” (2024).
Each block holds one compound with its values, some of them ahead of it.

How the values were obtained:
[1] = biological target: T1, 5-hydroxytryptamine receptor 2C (Homo sapiens) (UniProt P28335); test: Selectivity interaction (GPCR panel (PDSP screen)) EUB0000311b HTR2C; conditions: at 10 µM
T1 sequence (whole entry): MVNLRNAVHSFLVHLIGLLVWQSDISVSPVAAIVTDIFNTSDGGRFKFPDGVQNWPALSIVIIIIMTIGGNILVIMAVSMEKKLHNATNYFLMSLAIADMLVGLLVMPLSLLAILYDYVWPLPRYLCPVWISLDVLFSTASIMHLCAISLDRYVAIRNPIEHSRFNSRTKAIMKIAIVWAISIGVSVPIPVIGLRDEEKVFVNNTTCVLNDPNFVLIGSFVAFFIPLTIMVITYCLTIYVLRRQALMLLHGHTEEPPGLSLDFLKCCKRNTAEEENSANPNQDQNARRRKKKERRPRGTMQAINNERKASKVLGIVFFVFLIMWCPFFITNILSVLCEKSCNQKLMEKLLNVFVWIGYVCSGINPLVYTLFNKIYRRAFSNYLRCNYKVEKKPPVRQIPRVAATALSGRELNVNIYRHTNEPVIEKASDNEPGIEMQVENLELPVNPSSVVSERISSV

[2] = biological target: T2, Serine/threonine-protein kinase STK11 (Homo sapiens) (UniProt Q15831); test: Selectivity interaction (KinomeScan (DiscoverX)) EUB0000607a STK11; conditions: at 10 µM
T2 sequence (whole entry): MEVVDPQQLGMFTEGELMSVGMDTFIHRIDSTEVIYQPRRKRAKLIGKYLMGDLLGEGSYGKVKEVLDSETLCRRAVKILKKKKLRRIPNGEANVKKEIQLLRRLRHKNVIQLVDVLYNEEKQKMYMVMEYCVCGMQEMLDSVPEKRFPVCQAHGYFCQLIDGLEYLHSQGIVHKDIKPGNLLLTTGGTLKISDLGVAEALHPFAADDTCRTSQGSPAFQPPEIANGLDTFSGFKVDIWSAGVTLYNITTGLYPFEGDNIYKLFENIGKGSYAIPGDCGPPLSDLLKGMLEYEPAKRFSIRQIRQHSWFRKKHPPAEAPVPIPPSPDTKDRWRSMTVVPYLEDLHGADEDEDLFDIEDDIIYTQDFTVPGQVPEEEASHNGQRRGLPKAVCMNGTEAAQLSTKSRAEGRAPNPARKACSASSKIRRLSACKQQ

[3] = biological target: Ribosomal protein S6 kinase alpha-4 (Homo sapiens) (UniProt O75676); test: Selectivity interaction (KinomeScan (DiscoverX)) EUB0000607a RPS6KA4; conditions: at 10 µM
Chain of Ribosomal protein S6 kinase alpha-4 (Homo sapiens) (O75676 whole entry, looked up): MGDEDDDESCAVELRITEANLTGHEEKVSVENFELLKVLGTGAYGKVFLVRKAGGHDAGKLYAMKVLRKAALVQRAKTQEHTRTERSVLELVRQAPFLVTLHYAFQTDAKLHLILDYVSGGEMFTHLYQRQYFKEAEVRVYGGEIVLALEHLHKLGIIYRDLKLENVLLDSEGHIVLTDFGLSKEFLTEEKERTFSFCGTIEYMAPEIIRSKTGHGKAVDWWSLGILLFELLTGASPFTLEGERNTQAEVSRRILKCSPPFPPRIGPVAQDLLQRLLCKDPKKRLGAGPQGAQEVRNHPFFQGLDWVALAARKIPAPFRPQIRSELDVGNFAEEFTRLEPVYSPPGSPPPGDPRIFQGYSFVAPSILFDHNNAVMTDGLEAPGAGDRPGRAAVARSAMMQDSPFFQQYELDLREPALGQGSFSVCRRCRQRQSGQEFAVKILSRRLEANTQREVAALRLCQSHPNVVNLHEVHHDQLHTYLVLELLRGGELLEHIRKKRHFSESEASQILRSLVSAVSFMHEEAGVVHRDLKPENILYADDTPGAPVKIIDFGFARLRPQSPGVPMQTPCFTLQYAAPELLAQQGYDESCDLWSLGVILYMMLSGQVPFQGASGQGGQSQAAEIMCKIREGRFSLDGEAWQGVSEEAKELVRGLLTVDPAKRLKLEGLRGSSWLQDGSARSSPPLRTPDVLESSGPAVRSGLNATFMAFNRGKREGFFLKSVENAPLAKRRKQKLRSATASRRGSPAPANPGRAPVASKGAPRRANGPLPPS

[4] = biological target: T3, Mitogen-activated protein kinase kinase kinase 6 (Homo sapiens) (UniProt O95382); test: Selectivity interaction (ActivX KiNativ screen (kinase selectivity in THP-1 cell lysates)) EUB0000639a MAP3K6; format: subcellular; conditions: lysate
T3 sequence (whole entry): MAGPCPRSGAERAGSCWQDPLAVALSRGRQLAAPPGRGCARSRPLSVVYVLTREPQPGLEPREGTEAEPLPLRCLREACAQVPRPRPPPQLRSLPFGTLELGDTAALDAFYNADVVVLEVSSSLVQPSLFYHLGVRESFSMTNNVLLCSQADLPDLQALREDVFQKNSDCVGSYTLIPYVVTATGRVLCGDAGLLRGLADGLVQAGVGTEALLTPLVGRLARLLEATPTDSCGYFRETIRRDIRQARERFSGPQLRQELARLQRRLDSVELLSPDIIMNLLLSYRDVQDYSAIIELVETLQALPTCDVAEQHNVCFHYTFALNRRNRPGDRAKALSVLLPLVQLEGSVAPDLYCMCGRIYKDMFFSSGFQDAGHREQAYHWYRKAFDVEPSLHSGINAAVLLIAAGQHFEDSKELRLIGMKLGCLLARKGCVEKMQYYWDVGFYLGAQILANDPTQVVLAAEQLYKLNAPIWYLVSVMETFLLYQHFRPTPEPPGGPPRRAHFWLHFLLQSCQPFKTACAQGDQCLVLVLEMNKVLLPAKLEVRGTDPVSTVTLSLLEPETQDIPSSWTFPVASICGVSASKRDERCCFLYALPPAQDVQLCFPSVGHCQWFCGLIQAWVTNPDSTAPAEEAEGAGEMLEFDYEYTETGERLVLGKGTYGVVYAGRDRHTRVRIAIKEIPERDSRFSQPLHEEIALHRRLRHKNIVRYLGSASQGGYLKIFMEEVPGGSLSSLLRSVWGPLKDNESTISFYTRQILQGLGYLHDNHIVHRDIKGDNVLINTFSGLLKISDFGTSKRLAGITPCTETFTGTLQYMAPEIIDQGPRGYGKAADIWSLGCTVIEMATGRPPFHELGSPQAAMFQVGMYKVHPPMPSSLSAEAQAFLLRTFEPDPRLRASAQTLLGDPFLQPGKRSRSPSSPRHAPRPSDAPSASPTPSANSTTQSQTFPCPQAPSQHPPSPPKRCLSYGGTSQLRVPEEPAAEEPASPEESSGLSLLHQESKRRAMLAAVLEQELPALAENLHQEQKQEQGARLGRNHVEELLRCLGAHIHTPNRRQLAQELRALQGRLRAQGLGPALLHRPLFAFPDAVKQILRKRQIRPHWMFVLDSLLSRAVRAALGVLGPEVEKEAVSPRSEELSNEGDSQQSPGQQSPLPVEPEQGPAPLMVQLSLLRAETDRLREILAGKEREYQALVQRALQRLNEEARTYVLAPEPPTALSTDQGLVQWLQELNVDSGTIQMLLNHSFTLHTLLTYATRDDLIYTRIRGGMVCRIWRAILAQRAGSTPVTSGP

[5] = biological target: Ribosomal protein S6 kinase alpha-6 (Homo sapiens, UniProt Q9UK32); conditions: at 10 µM
Chain of Ribosomal protein S6 kinase alpha-6 (Q9UK32 whole entry): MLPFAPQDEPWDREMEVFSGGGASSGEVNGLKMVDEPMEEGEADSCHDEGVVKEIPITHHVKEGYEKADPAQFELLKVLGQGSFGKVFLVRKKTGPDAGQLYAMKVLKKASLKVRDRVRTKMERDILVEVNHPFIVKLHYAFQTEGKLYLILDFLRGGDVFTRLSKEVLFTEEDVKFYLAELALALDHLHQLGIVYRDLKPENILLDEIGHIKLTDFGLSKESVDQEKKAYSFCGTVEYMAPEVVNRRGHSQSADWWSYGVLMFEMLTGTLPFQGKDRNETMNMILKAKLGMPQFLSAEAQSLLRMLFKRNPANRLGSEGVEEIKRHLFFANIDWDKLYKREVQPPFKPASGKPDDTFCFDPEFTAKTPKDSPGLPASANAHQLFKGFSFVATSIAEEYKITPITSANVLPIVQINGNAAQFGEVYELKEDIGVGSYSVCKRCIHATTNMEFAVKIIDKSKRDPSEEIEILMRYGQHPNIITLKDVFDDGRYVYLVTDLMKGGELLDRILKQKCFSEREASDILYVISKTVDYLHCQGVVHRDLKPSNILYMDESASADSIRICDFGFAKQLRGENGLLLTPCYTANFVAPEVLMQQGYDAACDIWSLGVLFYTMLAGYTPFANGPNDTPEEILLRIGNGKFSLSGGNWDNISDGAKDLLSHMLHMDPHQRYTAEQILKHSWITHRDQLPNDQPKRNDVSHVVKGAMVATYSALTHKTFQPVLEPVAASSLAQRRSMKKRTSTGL

% of inhibition [1]: 20%
SMILES: CCc1ccccc1C(=O)Nc1n[nH]c2c(C)c(F)c(C3C(C#N)=C(C)N(C)C(C)=C3C#N)cc12 [BAY-3827]

SMILES: CNC(=O)Nc1ccc(-c2nc(N3CC4CCC(C3)O4)c3cnn(C4CCC5(CC4)OCCO5)c3n2)cc1
% of control [2]: 80%
% of control [3]: 90%

% of inhibition ([4]; at 0.01 µM): -12.1%
% of inhibition ([4]; at 0.04 µM): -3.2%
% of inhibition ([4]; at 0.2 µM): 0%
% of inhibition ([4]; at 1 µM): -6.5%
% of inhibition ([4]; at 5 µM): -21.9%
SMILES: CC[C@@H]1[C@H](F)C(=O)N[C@@H]1COc1nccc2cc(C(N)=O)c(OC)cc12 [ZIMLOVISERTIB]

SMILES: Cc1cc([C@@H](C)Nc2ccccc2C(=O)O)c2nc(N3CCOCC3)cc(=O)n2c1 [AZD-6482]
% of control [5]: 71%
